The test system of the assay is weedy target. Briefly: Greenhouse Paraquat spray on weedy target. Particulars: 24 hours post spray. The format is in vivo. An excerpt:
Turning to FIG. 8, recovery of replicates of plants using compositions of the present invention is shown. The control is in the upper left and the remaining plants are colonized with single Trichoderma strains, with 3 replicate plants per strain.

Structures are written as SMILES.

In the case of `C[n+]1ccc(-c2cc[n+](C)cc2)cc1.[Cl-].[Cl-]` [Paraquat, N,N′-dimethyl-4,4′-bipyridinium dichloride], the “killing effect of the Paraquat application” value was “complete killing effect”.

Values taken from patent publication US20200345002A1, “COMPOSITIONS AND METHODS FOR INDUCING CROP CHANGES BY LEVERAGING THE EFFECTS OF AN APPLIED AGRICULTURAL CHEMICAL” (ADVANCED BIOLOGICAL MARKETING, INC., priority 2017, published 2020).
